Several values for one entry are separate records, joined by “and”; a condition that tells them apart may be missing. Equal entries are not always repeated.

The test concerns PHA-producing microbial cells. The test can be described thus: flask cultures: effect of cell debris solutions and SDS on cell growth and PHA formation. The settings on record: for Cell mass: 12 g/L glucose. It is filed as cell-based. How it is done: Starting with cell mass of high PHA content (72% w/w), production of 1 kg of PHA, in a purity of 96.4 w/w, generates about 0.45 kg of cell debris as shown in the scheme reported above. Disposal of this large amount of waste in aqueous solution is a task of high cost, but could be avoided with additional benefit if the cell debris could be reused in PHA fermentation. In order to reveal the effect of cell debris on cell growth and PHA formation, microbial cultures were conducted in 500 mL flasks in parallel. The flask cultures were set up with the same glucose concentrations (10-20 g/L), the same volume of mineral solution (160 mL) as shown in Table 1 reported hereinbelow, and the same inoculum and size. After predetermined amount of cell debris solutions were added, the total volume of flask cultures was raised to 200 mL by adding pre-sterilized distilled and deionized water. The flasks were shaken at 200 rpm and 30 ° C. in a rotary incubator for 24 or 48 hours. The cell mass concentration and PHA content were determined as described in the literature (see Jian Yu and Lilian X. L. Chen (2006), “Cost-effective recovery and purification of polyhydroxyalkanoates by selective dissolution of cell mass”, Biotechnology Progress, 22:547-553). […]
Surfactants such as SDS are optionally used in PHA recovery to disrupt cells and remove lipids and pigments from polyesters. They are soluble and left in the cell debris solutions, which may cause adverse effect on cell growth when the cell debris solution is reused in PHA fermentation. An acid-base cell debris solution containing 48.5 g/L of soluble solids and 5 g/L of SDS was used in this case. In the same flask cultures above (12 g/L of glucose), 8 mL of ABCDS was added to give 1.94 g/L of cell debris and 0.2 g/L of SDS. Additional SDS was also added to increase SDS concentration to 0.4, 0.6 and 0.8 g/L. Table 4 gives the results of cell growth and PHA formation at different surfactant levels. […] The benefit of cell debris at low SDS concentration (0.2-0.4 g/L) leads to 200-300% of increase in PHA concentration in comparison with the control.

Regarding `CCCCCCCCCCCCOS(=O)(=O)[O-].[Na+]` [SDS, sodium dodecyl sulfate], the “PHA formation vs control without cell debris and surfactant” value is reported as “enhanced” (SDS 0.2-0.6 g/L with 1.94 g/L cell debris) and “damaged to a great extent” (SDS 0.8 g/L with 1.94 g/L cell debris). Besides, the Cell mass is, setting by setting: (SDS 0.2 g/L with 1.94 g/L cell debris (ABCDS), 24 hours) 3.69 g/L; (SDS 0.2 g/L with 1.94 g/L cell debris (ABCDS), 48 hours) 4.99 g/L; (SDS 0.4 g/L with 1.94 g/L cell debris (ABCDS), 24 hours, sulfate) 3.22 g/L and 3.33 g/L; (SDS 0.4 g/L with 1.94 g/L cell debris (ABCDS), 48 hours, sulfate) 4.46 g/L and 4.62 g/L; (SDS 0.6 g/L with 1.94 g/L cell debris (ABCDS), 24 hours) 2.70 g/L; (SDS 0.6 g/L with 1.94 g/L cell debris (ABCDS), 48 hours) 3.51 g/L. Moreover, the Cell mass (SDS 0.8 g/L with 1.94 g/L cell debris (ABCDS), 24 hours) came out at 2.59 g/L and the Cell mass (SDS 0.8 g/L with 1.94 g/L cell debris (ABCDS), 48 hours) came to 3.54 g/L.

Values taken from patent publication US20170002385A1, “USING CELL DEBRIS GENERATED FROM PHA RECOVERY FOR ENHANCED CELL GROWTH AND BIOPOLYESTER FORMATION” (BIO ON S.r.l., priority 2009, published 2017).
